# Results reported in patent US20260317308A1, “A SEQUENCE SELECTIVE DNA BINDING MOLECULE (SYNGRADER)” (ST. JUDE CHILDREN'S RESEARCH HOSPITAL, INC., priority 2023, published 2026).
# What was measured:
# TCF3-PBX1-HaloTag = assay: P2RY10 luciferase reporter assay in HEK293T cells expressing Doxycycline-inducible TCF3-PBX1-HaloTag; type: cell-based, human
# Protocol: Cells were transfected with P2RY10-Luciferase reporter plasmid DNA which contains the 282 bp P2RY10 promoter sequence cloned downstream of a minimal TATA box promoter. After 24 hours, the cells were treated with 0.70 and 1.0 μM PBX-SynTEF2 (SnTF2), SynTEF-PBX-DRG1 (DRG1), and SynTEF-PBX-DRG2 (DRG2). The SynTEF-PBX-DRG1 compound carries the Thalidomide ligand for recruitment of the Cerbelon E3-Ligase, and SynTEF-PBX-DRG2 has a VHL ligand for the recruitment of the VHL E3-Ligase. Doxycycline (DOX) was added at 0.1 ug/mL concentration to induce TCF3-PBX1-HaloTag expression, and 48 hours after DOX addition, NanoGlo Luciferase expression (Promega) was measured in the medium (Luciferase protein is secreted by the cells). Luciferase activity was calculated as Fold Change compared to “DMSO without DOX” control cells (purple bar), Error bars: Standard deviation. N>6 biological replicates.
# [1] = tested on: NALM6 (N6) Acute Lymphoblastic Leukemia (ALL) B cells expressing TCF3-PBX1-HaloTag; assay: Cell viability assay (CellTiterGlo) in NALM6 ALL cells with Doxycycline-inducible TCF3-PBX1-HaloTag, co-transfected with P2RY10 and CMV luciferase reporter plasmids; type: cell-based; details: for loss in cell viability: loaded on WT TR DNA-Aptamer, vs DMSO no DOX
# Protocol: The N6-TCF3-PBX1-HaloTag cells were Nucleofected (Lonza) with P2RY10-Luciferase and CMV promoter Luciferase reporter plasmid DNAs. After 24 hours, cells were treated with either wildtype (WT) or Mutant (MT) Transferrin Receptor (TR) WGGWWW DNA-Aptamers pre-loaded with PBX-SynTEF-FL (SnTF-FL), SynTEF-PBX-DRG1 (DRG1), and SynTEF-PBX-DRG2 (DRG2). The WT and MT DNA-Aptamers contain WGGWWW tail duplex DNA sequences that bind the PBX-SynTEF payloads, but only WT DNA-Aptamers can bind to TR present on the cell surface of NALM6 ALL cells, resulting in TR-mediated cellular internalization of the polyamide compounds. The MT DNA-Aptamer, has a GG to AA dinucleotide substitution which prevents binding to the TR (*see Cheng et al, 2022). Thus, cells treated with the MT DNA-Aptamer-SynTEF complexes serve as negative controls, since without a functional Aptamer, it is unlikely that the polyamides are taken up by the NALM6 cells. Doxycycline (DOX) was added at 0.1 ug/mL concentration to induce TCF3-PBX1-HaloTag expression, and 48 hours after DOX addition, cell viability was measured using CellTiterGlo reagent (Promega) which detects ATP present only in live cells. CellTiterGlo activity was calculated as Fold Change compared to “DMSO no DOX” treated cells which had the highest cell viability (dark blue bars). Error bars: Standard deviation. N>6 biological replicates.
smiles,measurement,setting,value
CSCCC(NC(=O)C(Cc1c[nH]c2ccccc12)NC(=O)C1CCCN1C(=O)C(Cc1ccc(O)cc1)NC(=O)C(Cc1ccccc1)NC(C)=O)C(=O)NC(CCCCNC(=O)CCOCCOCCOCCOCCOc1cccc2c1C(=O)N(C1CCC(=O)NC1=O)C2=O)C(=O)NCC(=O)NCCOCCOCCOCCC(=O)NCCCN(C)CCCNC(=O)CCNC(=O)c1cc(NC(=O)c2cc(NC(=O)c3cc(NC(=O)c4cc(NC(=O)CCCNC(=O)c5cc(NC(=O)c6cc(NC(=O)c7nc(NC(=O)c8nccn8C)cn7C)cn6C)cn5C)cn4C)cn3C)cn2C)cn1C (stereo not drawn) [SynTEF-PBX-DRG1],further increase of Luciferase expression above DMSO plus DOX baseline (in words),"TCF3-PBX1-HaloTag; both 0.70 and 1.0 μM, with DOX",fail to further increase Luciferase expression
same,activity of the oncogenic TCF3-PBX1 fusion in cell-based reporters (in words),TCF3-PBX1-HaloTag; cell-based reporters,reduced activity
same,toxicity to the cells (in words),"[1]; NALM6 cells, without DOX",toxic to the cells but only when internalized
same,loss in cell viability,"[1]; with DOX 0.1 ug/mL, 48 h",~ 85%
same,cell viability compared to +DOX DMSO and +DOX SynTF-FL cells (in words),"[1]; with DOX, loaded on MT DNA-Aptamer (negative control)",comparable viability
same,loss in cell viability,"[1]; without DOX, both P2RY10 and CMV nucleofected cells",70-80%
